The text below walks through data of patent US20110306547A1, “LHRH - ANTAGONISTS IN THE TREATMENT OF FERTILITY DISORDERS” (Zentaris GmbH, priority 1996, published 2011).

Where a SMILES comes first, the peptide text is derived from it. [ ]: non-standard residue; d: D form. dPhe(4-Cl) = N[C@H](Cc1ccc(Cl)cc1)C(=O)O; d2Nal = N[C@H](Cc1ccc2ccccc2c1)C(=O)O; dCit = NC(=O)NCCC[C@@H](N)C(=O)O; d3Pal = N[C@H](Cc1cccnc1)C(=O)O

This test concerns patients undergoing COS/ART. The test can be described thus: Phase II clinical trial of Cetrorelix in controlled ovarian stimulation / superovulation for assisted reproduction (COS/ART). It is filed as in vivo, human (patients). The protocol: The results of a phase II clinical trial are shown in Table I. A total of […] patients were treated. […] During multiple dosing, the mean days of Cetrorelix application is 6 days. 25 babies were born by the end of May 1996 (7 following multiple doses; 18 following single/dual doses). [table] […] [table] 238 patients were treated with Cetrorelix by subcutaneous injection of Cetrorelix […]-Lyophilisat. 134 patients were treated with multiple doses and 104 patients with single or dual doses. The multiple doses are 0.25 mg/day or higher. The single dose was 3 mg or higher. […] Multiple doses were applied for 3 to a maximum of 10 days dependent on follicular development.

The mark [1] stands for this setting: multiple dose schedule, daily s.c., 3-7/14 days, phase II dose finding.
The mark [2] stands for this setting: single dose, posology 1 day, phase II dose finding.

`CC(=O)N[C@H](Cc1ccc2ccccc2c1)C(=O)N[C@H](Cc1ccc(Cl)cc1)C(=O)N[C@H](Cc1cccnc1)C(=O)N[C@@H](CO)C(=O)N[C@@H](Cc1ccc(O)cc1)C(=O)N[C@H](CCCNC(N)=O)C(=O)N[C@@H](CC(C)C)C(=O)N[C@@H](CCCNC(=N)N)C(=O)N1CCC[C@H]1C(=O)N[C@H](C)C(N)=O` [Cetrorelix] (Ac-[d2Nal][dPhe(4-Cl)][d3Pal]SY[dCit]LRP[dA]-NH2): the “premature LH surge (FIG. 1)” value (FIG. 1) was “absolute prevention of any premature LH surge”. Moreover, under “all phase II patients, both regimens”, the “pregnancies (number)” value is recorded as 71 pregnancies. Also, under setting [1], the “minimal effective dose (Dose/Day)” value is given as 0.25 min. effect. dose mg and the “no effect dose (Dose/Day)” value was 0.10 no effect. dose mg. Also, for the setting “multiple doses of 0.25 mg/day or higher”, the “premature LH surge” value is “No premature LH surge was seen in any patient”. In addition, the “premature LH surge” value (single dose of 3 mg or higher) is recorded as “No premature LH surge was seen in any patient”. Besides, under setting [2], the minimal effective dose is on record as 3 min. effective dose mg and the no effect dose was found to be 2 no effect. Dose mg. In addition, under “total”, the “babies born by the end of May 1996” value turned out to be 25.
